In US8343973B2, “Phenoxymethyl heterocyclic compounds” (EnVivo Pharmaceuticals, Inc., priority 2009, dated 2013):

Test system: not given
Assay: not given
Settings: rats; cited from earlier work

Row | Compound | apomorphine induced stereotypes | haloperidol induced catalepsy | rat brain dopamine levels
1 | COc1ccc(Cc2nccc3cc(OC)c(OC)cc23)cc1OC [papaverine] | reduces | increases | reduces

Biological target: Human PDE10A1 (Homo sapiens, UniProt Q9Y233)
Assay: hPDE10A1 enzyme inhibition ([3H]-cAMP hydrolysis, scintillation)
Assay type: biochemical
Settings: Human PDE10A1, [3H]-cAMP substrate; read-out: hPDE10A1 IC50 Band
Procedure: hPDE10A1 Enzyme Activity: 50 μl samples of serially diluted Human PDE10A1 enzyme were incubated with 50 μl of [^3H]-cAMP for 20 minutes (at 37° C.). Reactions were carried out in Greiner 96 deep well 1 ml master-block. The enzyme was diluted in 20 mM Tris HCl pH7.4 and [^3H]-cAMP was diluted in 10 mM MgCl2, 40 mM Tris.HCl pH 7.4. The reaction was terminated by denaturing the PDE enzyme (at 70° C.) after which [^3H]-5′-AMP was converted to [^3H]-adenosine by adding 25 μl snake venom nucleotidase and incubating for 10 minutes (at 37° C.). Adenosine, being neutral, was separated from charged cAMP or AMP by the addition of 200 μl Dowex resin. Samples were shaken for 20 minutes then centrifuged for 3 minutes at 2,500 r.p.m. 50 μl of supernatant was removed and added to 200 μl of MicroScint-20 in white plates (Greiner 96-well Optiplate) and shaken for 30 minutes before reading on Perkin Elmer TopCount Scintillation Counter.
hPDE10A1 Enzyme Inhibition: To check inhibition profile 11 μl of serially diluted inhibitor was added to 50 μl of [^3H]-cAMP and 50 ul of diluted Human PDE10A1 and assay was carried out as in the enzyme activity assay. Data was analysed using Prism software (GraphPad Inc).

Sequence of Human PDE10A1 (Q9Y233 1-779 isoform Q9Y233-1): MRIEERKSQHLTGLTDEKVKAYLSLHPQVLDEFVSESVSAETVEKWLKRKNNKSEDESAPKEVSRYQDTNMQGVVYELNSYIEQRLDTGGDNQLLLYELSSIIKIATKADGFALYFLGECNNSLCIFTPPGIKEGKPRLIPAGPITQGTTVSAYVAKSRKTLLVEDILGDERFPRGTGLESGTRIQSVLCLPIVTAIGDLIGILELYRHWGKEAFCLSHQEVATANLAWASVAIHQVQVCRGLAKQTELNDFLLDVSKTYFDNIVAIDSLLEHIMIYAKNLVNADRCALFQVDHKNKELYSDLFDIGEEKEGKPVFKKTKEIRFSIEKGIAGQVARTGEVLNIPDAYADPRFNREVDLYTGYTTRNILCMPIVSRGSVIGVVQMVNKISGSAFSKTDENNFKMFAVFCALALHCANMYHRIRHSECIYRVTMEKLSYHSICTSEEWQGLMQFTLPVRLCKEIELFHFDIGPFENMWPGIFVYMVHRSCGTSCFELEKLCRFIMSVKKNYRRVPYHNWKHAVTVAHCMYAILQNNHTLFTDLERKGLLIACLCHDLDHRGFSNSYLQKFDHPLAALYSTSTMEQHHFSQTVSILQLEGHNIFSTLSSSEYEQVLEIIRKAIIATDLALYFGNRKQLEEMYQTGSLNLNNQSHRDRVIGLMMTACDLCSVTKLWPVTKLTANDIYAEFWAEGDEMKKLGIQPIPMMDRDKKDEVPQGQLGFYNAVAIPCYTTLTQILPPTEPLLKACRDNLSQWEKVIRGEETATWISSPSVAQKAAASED

Row | Compound | IC50
2 | COc1ccc(C2=C(c3ccc(OCc4cn5nc(Cl)ccc5n4)cc3)C(=O)C(C)(C)O2)cc1 [4-(4-((6-chloroimidazo[1,2-b]pyridazin-2-yl)methoxy)phenyl)-5-(4-methoxyphenyl)-2,2-dimethylfuran-3(2H)-one] | 10 to 50 nM
3 | COc1ccc(C2=C(c3ccc(OCc4cn5ccccc5n4)cc3)C(=O)C(C)(C)O2)cc1 [4-(4-(imidazo[1,2-a]pyridin-2-ylmethoxy)phenyl)-5-(4-methoxyphenyl)-2,2-dimethylfuran-3(2H)-one] | ≤ 10 nM
4 | COc1ccc(C2=C(c3ccc(OCc4cn5ncccc5n4)cc3)C(=O)C(C)(C)O2)cc1 [4-(4-(imidazo[1,2-b]pyridazin-2-ylmethoxy)phenyl)-5-(4-methoxyphenyl)-2,2-dimethylfuran-3(2H)-one] | ≤ 10 nM
5 | COc1ccc(C2=C(c3ccc(OCc4ccc5nccn5n4)cc3)C(=O)C(C)(C)O2)cc1 [4-(4-(imidazo[1,2-b]pyridazin-6-ylmethoxy)phenyl)-5-(4-methoxyphenyl)-2,2-dimethylfuran-3(2H)-one] | 10 to 50 nM
6 | Cc1ccc(COc2ccc(C3=C(c4ccc(C#N)cc4)OC(C)(C)C3=O)cc2)nc1 [4-(5,5-dimethyl-3-(4-((5-methylpyridin-2-yl)methoxy)phenyl)-4-oxo-4,5-dihydrofuran-2-yl)benzonitrile] | ≤ 10 nM
7 | COc1ccc(C2=C(c3ccc(OCc4nc5ccccn5c4C)cc3)C(=O)C(C)(C)O2)cc1 [5-(4-Methoxyphenyl)-2,2-dimethyl-4-(4-((3-methylimidazo[1,2-a]pyridin-2-yl)methoxy)phenyl)furan-3(2H)-one] | 10 to 50 nM
8 | COc1ccc(C2=C(c3ccc(OCc4cn5c(C)cccc5n4)cc3)C(=O)C(C)(C)O2)cc1 [5-(4-Methoxyphenyl)-2,2-dimethyl-4-(4-((5-methylimidazo[1,2-a]pyridin-2-yl)methoxy)phenyl)furan-3(2H)-one] | ≤ 10 nM
9 | COc1ccc(C2=C(c3ccc(OCc4ccc(C)cn4)cc3)C(=O)C(C)(C)O2)cc1 [5-(4-methoxyphenyl)-2,2-dimethyl-4-(4-((5-methylpyridin-2-yl)methoxy)phenyl)furan-3(2H)-one] | ≤ 10 nM

Other lines, results leading:

Row | IC50 | Compound
10 | ≤ 10 nM | CC1(C)OC(c2ccc(C#N)cc2)=C(c2ccc(OCc3cn4ccccc4n3)cc2)C1=O [4-(3-(4-(imidazo[1,2-a]pyridin-2-ylmethoxy)phenyl)-5,5-dimethyl-4-oxo-4,5-dihydrofuran-2-yl)benzonitrile]
11 | ≤ 10 nM | COc1ccc(C2=C(c3ccc(OCc4ncc(C)cc4C)cc3)C(=O)C(C)(C)O2)cc1 [4-(4-((3,5-dimethylpyridin-2-yl)methoxy)phenyl)-5-(4-methoxyphenyl)-2,2-dimethylfuran-3(2H)-one]
12 | ≤ 10 nM | COc1ccc(C2=C(c3ccc(OCc4nc5ccccn5c4Cl)cc3)C(=O)C(C)(C)O2)cc1 [4-(4-((3-chloroimidazo[1,2-a]pyridin-2-yl)methoxy)phenyl)-5-(4-methoxyphenyl)-2,2-dimethylfuran-3(2H)-one]
13 | ≤ 10 nM | COc1ccc(C2=C(c3ccc(OCc4cn5cc(Cl)ccc5n4)cc3)C(=O)C(C)(C)O2)cc1 [4-(4-((6-Chloroimidazo[1,2-a]pyridin-2-yl)methoxy)phenyl)-5-(4-methoxyphenyl)-2,2-dimethylfuran-3(2H)-one]
